Test [1] relates to clot lysis time in NHP with anti-FVIII antibody. The test can be described thus: Clot lysis assay (t-PA mediated) in normal human plasma with anti-FVIII antibody. It counts as biochemical. The procedure:
FIGS. 28A and 28B show the synergistic effect of ^superFVa in combination with rhFVIIa on clot stabilization in NHP spiked with anti-FVIII antibody. Clot lysis time was determined by t-PA mediated fibrinolysis following thrombin induced fibrin clot formation in NHP spiked with anti-FVIII-antibody. (A) Increasing concentrations of rhFVIIa were added in the absence (open circle) or presence (open square) of ^superFVa (0.37 nM). (B) Increasing concentrations of ^superFVa were added in the absence (open circle) or presence (open square) of rhFVIIa (0.37 nM). Clot lysis time of NHP without inhibitors in the absence (open upward triangle) or presence of CPI (open downward triangle) represent control experiments. Normal human plasma; NHP. Carboxypeptidase inhibitor from potato tubers; CPI. Error bars represent standard error of the mean (n≥3).
Clot stability was studied as t-PA induced clot lysis time in NHP with anti-FVIII antibodies (GMA8015) at 10 μg/mL, as well as in FVIIIdP. The concentration of antibody was based on maximal shortening of the clot lysis time from approximately 105 min to 75 min following antibody titration (data not shown). The clot lysis time in the presence of antibody (10 μg/mL) was similar to the clot lysis time in the presence of CPI, which was used as control since it causes suppression of Thrombin Activatable Fibrinolysis Inhibitor (TAFI) activation. […]

The subject of test [2] is Balb/c mice. Kind of test: Liver laceration bleeding assay, APC-induced bleeding in Balb/c mice. It counts as in vivo. As for the experimental part: Mice were anesthetized with Isofluorane 3% and the abdomen was opened by substernal blunt midline dissection. […] Immediately after laceration mice were positioned prone into a small weighing dish (8 cm diameter) filled with saline (37° C., 13 mL), transferred into the anesthesia chamber which rested on a heating pad (37° C.). Anesthesia was maintained at 3% Isofluorane and dishes were changed after 10 minutes to collect blood for the first and second 10 minutes separately. Blood loss was determined as described for the tail clip model. Groups of Balb/c mice were injected intravenously (tail vein) with equal volumes (200 μL) of ^superFVa or saline 2 minutes prior to intravenous injection of plasma-derived human APC, followed immediately by liver laceration. All agents were diluted in sterile sodium chloride 0.9% for injection (Hospira Inc).

For test [3], the system named is Balb/c mice. Kind of test: Ex vivo whole blood aPTT after intravenous APC in Balb/c mice. Details: species or system mouse. The procedure:
Recombinant murine APC was administered intravenously to Balb/c mice by tail vein injection 2 minutes prior to retroorbital blood harvest in siliconized microcapillaries (75 μL) prefilled with 20 μL Sodium-Citrate (3.8%). Whole blood aPTT was performed immediately, whereby 50 μL of blood were mixed with 50 μL of aPTT reagent (APTT-XL, Pacific Hemostasis) and incubated at 37° C. for 3 minutes in the presence of FVa or buffer. Following addition of 25 μL of 130 mM CaCl2 in HBS, 0.5% BSA, the clotting time was recorded using an ST4 coagulometer (Diagnostica Stago).

Test [4] has as its system aPTT clotting time in murine plasma. Kind of test: aPTT clotting assay in murine plasma with rhAPC. To be noted: 5 U/mL FVa variants, APC, ~100 seconds without FVa. It counts as biochemical, mouse. The procedure:
APC-mediated inactivation of FVa was analyzed in ETP assays and aPTT clotting assays. FVa mutants were incubated with equal volumes of either recombinant human APC (Xigris®) or buffer in human and murine Balb/c plasma.
Plasma (50 μL) was mixed with 50 μL of a PTT reagent (APTT-XL, Pacific Hemostasis) and incubated at 37° C. for 3 minutes in the presence of FVa either with recombinant human APC or buffer. Following addition of 25 μL of 50 mM CaCl2 in HBS, 0.5% BSA, the clotting time was recorded using an ST4 coagulometer (Diagnostica Stago).

Test [5] deals with Balb/c mice treated with anti-FVIII antibodies. The test can be described thus: Tail clip bleeding assay in Balb/c mice treated with anti-FVIII antibodies. It counts as in vivo, mouse. The settings on record: 20 minutes. As for the experimental part:
Mice were anesthetized, placed on temperature controlled heating pads (37° C.), and the distal portion of the tail was cut at 1.5 mm diameter after which the tail was immersed in a predefined volume of 37° C. saline (0.9% NaCl) for 20 minutes. Blood loss was determined by the hemoglobin concentration in the saline solution after red cell lysis with 2% acetic acid and measured by absorbance at 405 nm. Using a hemoglobin standard derived from defined blood volumes, blood loss was calculated assuming a hematocrit of 46% and expressed in μL/g body weight. Groups of FVIII-deficient mice were injected intravenously (retro-orbital) within 2 minutes prior to tail cut with equal volumes ([…]) of sterile saline for injection (0.9%, Hospira Inc.), rhFVIII 200 units/kg FVIII (Xyntha®, Pfizer, NY, N.Y., USA) ^superFVa, rhFVIIa (NovoSeven®, NovoNordisk, Bagsvaerd, Denmark) or a combination of ^superFVa and rhFVIIa. All agents were diluted in sterile sodium chloride 0.9% for injection (Hospira Inc). […]
To further elucidate the efficiency of ^superFVa to reduce bleeding in presence of inhibitors for FVIII either alone or in combination with rhFVIIa, blood loss during a 20 minute bleeding period was determined in a tail transection model in Balb/c mice treated with anti-FVIII antibodies (0.25 mg/kg). […]

Test [6] relates to thrombin generation in FVIII-deficient plasma. To be noted: von Drygalski et al. JTH 2014; cited from earlier work.

Regarding “^superFVa: engineered APC-resistant FVa variant (SEQ ID NO:4): R306Q, R506Q, R679Q, Cys609-Cys1691 disulfide, S2183A, B-domain deleted”, the “concentration at which clot lysis times returned to normal” value in test [1] (factor alone, NHP with anti-FVIII antibody) came out at 3.33 nM. Also, the “concentration showing enhancement of clot lysis time” value in test [1] (factor individually, 10 μg/ml anti-FVIII antibody) was in the range of 2 to 5 µg/mL. In addition, the mean blood loss in test [2] (^superFVa (25 U/mL) prior to APC 1.25 mg/kg, 20 minutes after liver laceration) came out at 29 µL/g. Besides, in test [2] (^superFVa prior to APC, liver laceration), the bleeding-induced mortality entry was “abolished bleeding-induced mortality”. Also, in test [2] (^superFVa prior to wt APC, liver laceration), the “bleeding during the 2nd 10 min phase” value is given as “fully prevented bleeding”. Also, in test [3] (1 nM added to whole blood after iv APC 0.5 mg/kg), the “effect on whole blood aPTT clotting times” value is given as “significantly normalized aPTT clotting times”. In addition, in test [3] (FVa variant added ex vivo to whole blood drawn after APC 0.5 mg/kg injection), the “mean whole blood aPTT” value is 30 s. In test [4], the aPTT entry was “fully corrected the aPTT”. For the same substance, the blood loss worked out at 19.47 µL/g in test [5] (^superFVa 10 U/kg) and 9.97 µL/g in test [5] (^superFVa 40 U/kg). Besides, in test [6], the “increase of ETP in human FVIII-deficient plasma” value was “approximately 2 fold”.
